Data set [1] has as its system ethanol/HCl-induced gastric lesions. Put plainly: Ethanol/HCl-induced gastric lesion (ulcer) model in mice. Format: in vivo. The conditions noted are these: for inhibition in vivo at 25 mg/kg: Mus musculus, po, read-out: Gastroprotective effect: % Lesion reduction; for Gastroprotective effect: Lesion index: mean ± SD, sum of lesion lengths. On the procedure:
The gastroprotective activity of the compounds was determined in the ethanol/HCl-induced lesion model in mice. The purity of the tested compounds was higher than 95% by NMR analysis. Male Swiss albino mice weighing 30 ± 3 g were used. Animals were fed on certified Champion diet with free access to water under standard conditions of 12 h dark-light period, 50% relative humidity and 22 °C room temperature. Mice were randomly distributed into groups of eight animals each and fasted for 24 h with free access to water previous to the experiment. Fasting prior to ulcerogenic assays was used because 0.2 mL of the reference antisecretory drug lansoprazole (2-[[[3-methyl-4-(2,2,2-trifluroethoxy)-2-pyridyl]methyl]sulfinyl]benzimidazole) and the amides were administered orally. To keep the animal number to a minimum, dose-response studies were performed with the leucine derivatives 13 and 18 to set the conditions for single-dose comparison of gastroprotective effect. For the selected parent compounds, three doses were used: 25, 50 and 100 mg/kg. Fifty min after oral administration of the compounds, lansoprazole (20 mg/kg) or the vehicle (12% Tween 80, 10 mL/kg), all groups were orally treated with 0.2 mL of a solution containing 60% ethanol/0.3 M HCl (ethanol/HCl) for gastric lesion induction. Animals were sacrificed by cervical dislocation 1 h after the administration of ethanol/HCl, and the stomachs excised and inflated by injection of 5% formalin (1 mL). The ulcerated stomachs were fixed in 5% formalin for 30 min and opened along the greater curvature. The length (mm) of each lesion was measured, and the lesion index expressed as the sum of the length of all lesions. For comparison purposes, the products 1-5, 7-12, 14-16, 19 and 20 were assessed at a single oral dose of 25 mg/kg. The protocols were approved by the Universidad de Talca Institutional Animal Care and Use Committee, which follows the recommendations of the Canadian Council on Animal Care. Tween 80 and lansoprazole (> 98% purity by HPLC) were purchased from Sigma Chemical Co.
Results were expressed as the mean ± SD. In all experiments, statistical differences between several treatments and their respective control were determined by one-way analysis of variance (ANOVA) and when the F value was significant, post hoc differences were determined by the Dunnett's multiple comparison test. The level of significance was set at P < 0.05. All statistical analyses were performed using the software Statistica 5.1 (StatSoft, Inc.) and Statistical Package S-Plus 2000.

Data set [2] can be described thus: Cytotoxicity, neutral red uptake assay, AGS. It is filed as cell-based. The conditions noted are these: human, AGS gastric adenocarcinoma cells, confluent monolayers, confluent cultures, 0-1000 µM, mean ± SD. The protocol:
(§1) Human gastric adenocarcinoma cells AGS (ATCC CRL-1739) were grown as monolayers in Ham F-12 medium containing 1.0 mM L-glutamine and 1.5 g/L sodium bicarbonate, supplemented with 10% heat-inactivated FBS, 100 IU/mL penicillin and 100 µg/mL streptomycin in a humidified incubator with 5% CO2 in air at 37 °C. The cell passage was maintained between 42 and 48. The medium was changed every 2 days. Confluent cultures of MRC-5, AGS and Hep G2 cells were treated with medium containing the compounds at concentrations ranging from 0 up to 1000 µM. The products were first dissolved in DMSO and then in the corresponding culture medium supplemented with 2% FBS. The final content of DMSO in the test medium and controls was 1%. Cells were exposed for 24 h to the assayed compounds. Untreated cells served as controls. Each concentration was tested in quadruplicate together with the control and repeated three times in separate experiments. At the end of the incubation, the neutral red uptake (NRU) assay was carried out to determine cell viability. To calculate the IC50 values (concentration that produces a 50% inhibitory effect on the evaluated parameter) the results were transformed to percentage of controls and the IC50 value was graphically obtained from the dose-response curves.

A short description of data set [3]: Cytotoxicity, neutral red uptake assay, Hep G2. Format: cell-based. The conditions noted are these: human, Hep G2 cells, confluent monolayers, confluent cultures, 0-1000 µM, mean ± SD. The protocol: (§2) Human normal lung fibroblasts MRC-5 (ATCC CCL-171) and Hep G2 cells (ATCC HB-8065) were grown as monolayers in minimum essential Eagle´s medium (MEM), with Earle's salts, 2.0 mM L-glutamine (Sigma Chemical Co.) and 2.0 g/L sodium bicarbonate (Sigma Chemical Co.), supplemented with 10% heat-inactivated fetal bovine serum (FBS), 100 IU/mL penicillin and 100 µg/mL streptomycin in a humidified incubator with 5% CO2 in air at 37 °C. Cell passage was maintained between 10 and 16 for MRC-5 and between 79 and 82 for Hep G2 cells. The medium was changed every 2 days. Culture media, antibiotics and FBS were obtained from Invitrogen Corp.
as §1, with “Confluent” for “Human gastric adenocarcinoma cells AGS (ATCC CRL-1739) were grown as monolayers in Ham F-12 medium containing 1.0 mM L-glutamine and 1.5 g/L sodium bicarbonate, supplemented with 10% heat-inactivated FBS, 100 IU/mL penicillin and 100 µg/mL streptomycin in a humidified incubator with 5% CO2 in air at 37 °C. The cell passage was maintained between 42 and 48. The medium was changed every 2 days. Confluent”

A short description of data set [4]: Cytotoxicity, neutral red uptake assay, MRC-5. It is filed as cell-based. The conditions noted are these: human, MRC-5 normal lung fibroblasts, confluent monolayers, confluent cultures, 0-1000 µM, mean ± SD. On the procedure: as §2
as §1, with “Confluent” for “Human gastric adenocarcinoma cells AGS (ATCC CRL-1739) were grown as monolayers in Ham F-12 medium containing 1.0 mM L-glutamine and 1.5 g/L sodium bicarbonate, supplemented with 10% heat-inactivated FBS, 100 IU/mL penicillin and 100 µg/mL streptomycin in a humidified incubator with 5% CO2 in air at 37 °C. The cell passage was maintained between 42 and 48. The medium was changed every 2 days. Confluent”

[5] abbreviates: single oral dose 25 mg/kg, compared with untreated controls.

Bounds are passed on as bounds.

The term IC50 denotes the midpoint of a concentration-inhibition curve. For the compound `COC(=O)CNC(=O)C[C@H](C)CCC1=C(C)CCC2[C@@](C)(C(=O)O)CCC[C@]12C` (stereo partly shown) [Compound 1, Labd-8(9)-en-15,19-dioic acid, 15-glycyl methyl ester amide], the inhibition in vivo at 25 mg/kg in data set [1] (setting [5]) turned out to be 73.3%. Moreover, the “Gastroprotective effect: Lesion index” value in data set [1] (single oral dose 25 mg/kg) is 12.3 ± 7.6 mm. Besides, the IC50 at 24 h in data set [2] amounted to 189 ± 9 µM; in data set [3] it was 242 ± 13 µM; in data set [4], 447 ± 26 µM.
For `COC(=O)[C@@H](NC(=O)C[C@H](C)CCC1=C(C)CCC2[C@@](C)(C(=O)O)CCC[C@]12C)C(C)C` (stereo partly shown) [Compound 2, Labd-8(9)-en-15,19-dioic acid, 15-valyl methyl ester amide] the same measures were 58.5%, 19.1 ± 8.3 mm, greater than 1000 µM, greater than 1000 µM and greater than 1000 µM.
Turning to `COC(=O)[C@H](CC(C)C)NC(=O)C[C@H](C)CCC1=C(C)CCC2[C@@](C)(C(=O)O)CCC[C@]12C` (stereo partly shown) [Compound 3, Labd-8(9)-en-15,19-dioic acid, 15-leucyl methyl ester amide], the inhibition in vivo at 25 mg/kg in data set [1] (setting [5]) was determined as 72.6%. The “Gastroprotective effect: Lesion index” value in data set [1] (single oral dose 25 mg/kg) is on record as 12.6 ± 6.8 mm. For the same compound, the half-maximal inhibitory concentration (IC50) at 24 h was 445 ± 27 µM in data set [2], 806 ± 32 µM in data set [3] and greater than 1000 µM in data set [4].
Consider `COC(=O)[C@@H]1CCCN1C(=O)C[C@H](C)CCC1=C(C)CCC2[C@@](C)(C(=O)O)CCC[C@]12C` (stereo partly shown) [Compound 4, Labd-8(9)-en-15,19-dioic acid, 15-prolyl methyl ester amide], for which, in data set [1] (setting [5]), the inhibition in vivo at 25 mg/kg was found to be 70.9%. In addition, the “Gastroprotective effect: Lesion index” value in data set [1] (single oral dose 25 mg/kg) stood at 13.4 ± 6.8 mm. Moreover, the figures for the IC50 at 24 h in data set [2], in data set [3] and in data set [4] were 167 ± 7 µM, 321 ± 14 µM and 288 ± 11 µM, respectively.
Regarding `COC(=O)[C@H](Cc1c[nH]c2ccccc12)NC(=O)C[C@H](C)CCC1=C(C)CCC2[C@@](C)(C(=O)O)CCC[C@]12C` (stereo partly shown) [Compound 5, Labd-8(9)-en-15,19-dioic acid, 15-tryptophanyl methyl ester amide], in data set [1] (setting [5]), the inhibition in vivo at 25 mg/kg was found to be 25.4%. In addition, the “Gastroprotective effect: Lesion index” value in data set [1] (single oral dose 25 mg/kg) was 34.3 ±12.0 mm. Further, the IC50 at 24 h in data set [2] came out at 149 ± 7 µM; in data set [3], 291 ± 11 µM; in data set [4], 260 ± 15 µM.
For the compound `COC(=O)[C@@H]1CCCN1C(=O)[C@@]1(C)CCC[C@]2(C)C(CC[C@@H](C)CC(=O)O)=C(C)CCC12` (stereo partly shown) [Compound 7, Labd-8(9)-en-15,19-dioic acid, 19-prolyl methyl ester amide], in data set [1] (setting [5]), the inhibition in vivo at 25 mg/kg was found to be 53.9%. The “Gastroprotective effect: Lesion index” value in data set [1] (single oral dose 25 mg/kg) was determined as 21.2 ± 9.5 mm. Further, the results for the IC50 at 24 h in data set [2], in data set [3] and in data set [4] were 266 ± 16 µM, 364 ± 15 µM and 459 ± 32 µM, respectively.
With `COC(=O)CNC(=O)C[C@H](C)CCC1=C(C)CCC2[C@@](C)(C(=O)NCC(=O)OC)CCC[C@]12C` (stereo partly shown) [Compound 8, Labd-8(9)-en-15,19-dioic acid, 15,19-diglycyl methyl ester amide], in data set [1] (setting [5]), the inhibition in vivo at 25 mg/kg was found to be 62%. Further, the “Gastroprotective effect: Lesion index” value in data set [1] (single oral dose 25 mg/kg) is 17.5 ± 9.9 mm. The figures for the IC50 at 24 h in data set [2], in data set [3] and in data set [4] were 592 ± 30 µM, 841 ± 42 µM and 890 ± 45 µM, respectively.
Take `COC(=O)[C@@H]1CCCN1C(=O)C[C@H](C)CCC1=C(C)CCC2[C@@](C)(C(=O)N3CCC[C@H]3C(=O)OC)CCC[C@]12C` (stereo partly shown) [Compound 9, Labd-8(9)-en-15,19-dioic acid, 15,19-diprolyl methyl ester amide]: in data set [1] (setting [5]), the inhibition in vivo at 25 mg/kg was determined as 60%. In data set [1] (single oral dose 25 mg/kg), the “Gastroprotective effect: Lesion index” value came out at 18.4 ± 11.3 mm. Moreover, the IC50 at 24 h in data set [2] was 82 ± 4 µM; in data set [3], 67 ± 3 µM; in data set [4], 119 ± 7 µM.
`COC(=O)[C@H](Cc1c[nH]c2ccccc12)NC(=O)C[C@H](C)CCC1=C(C)CCC2[C@@](C)(C(=O)N[C@@H](Cc3c[nH]c4ccccc34)C(=O)OC)CCC[C@]12C` (stereo partly shown) [Compound 10, Labd-8(9)-en-15,19-dioic acid, 15,19-ditryptophanyl methyl ester amide]: in data set [1] (setting [5]), the inhibition in vivo at 25 mg/kg was found to be 61.7%. The “Gastroprotective effect: Lesion index” value in data set [1] (single oral dose 25 mg/kg) came out at 17.6 ± 7.8 mm. The IC50 at 24 h in data set [2], in data set [3] and in data set [4] was greater than 1000 µM throughout.
Consider `C=C1CCC2[C@](C)(CCC[C@]2(C)C(=O)O)[C@H]1CC[C@@H](C)CC(=O)NCC(=O)OC` (stereo partly shown) [Compound 11, Labd-8(17)-en-15,19-dioic acid, 15-glycyl methyl ester amide], for which, in data set [1] (setting [5]), the inhibition in vivo at 25 mg/kg was 71.9%. Besides, in data set [1] (single oral dose 25 mg/kg), the “Gastroprotective effect: Lesion index” value stood at 12.9 ± 8.1 mm. Moreover, the IC50 at 24 h was 361 ± 18 µM in data set [2], 541 ± 22 µM in data set [3] and greater than 1000 µM in data set [4].
Take `C=C1CCC2[C@](C)(CCC[C@]2(C)C(=O)O)[C@H]1CC[C@@H](C)CC(=O)N[C@H](C(=O)OC)C(C)C` (stereo partly shown) [Compound 12, Labd-8(17)-en-15,19-dioic acid, 15-valyl methyl ester amide]: the inhibition in vivo at 25 mg/kg in data set [1] (setting [5]) came out at 66.5%. In data set [1] (single oral dose 25 mg/kg), the “Gastroprotective effect: Lesion index” value is reported as 15.4 ± 8.8 mm. The IC50 at 24 h in data set [2] came to 309 ± 18 µM; in data set [3], 673 ± 34 µM; in data set [4], 380 ± 19 µM.
For `C=C1CCC2[C@](C)(CCC[C@]2(C)C(=O)O)[C@H]1CC[C@@H](C)CC(=O)N[C@@H](CC(C)C)C(=O)OC` (stereo partly shown) [Compound 13, Labd-8(17)-en-15,19-dioic acid, 15-leucyl methyl ester amide], the inhibition in vivo at 25 mg/kg in data set [1] (setting [5]) is roughly 65.6%. Besides, the “gastric lesion reduction at the higher doses” value in data set [1] (dose-response study, higher oral doses (50 and 100 mg/kg)) is 79-89%. Further, in data set [1] (single oral dose 25 mg/kg, compared with untreated controls, 25 mg/kg), the “Gastroprotective effect: % Lesion reduction” value amounted to 65.6%. Also, in data set [1] (single oral dose 25 mg/kg, 25 mg/kg), the “Gastroprotective effect: Lesion index” value was 15.8 ± 6.2 mm. Moreover, the IC50 at 24 h in data set [2] came out at 308 ± 17 µM; in data set [3], 808 ± 48 µM; in data set [4], 449 ± 29 µM.
Consider `C=C1CCC2[C@](C)(CCC[C@]2(C)C(=O)O)[C@H]1CC[C@@H](C)CC(=O)N1CCC[C@H]1C(=O)OC` (stereo partly shown) [Compound 14, Labd-8(17)-en-15,19-dioic acid, 15-prolyl methyl ester amide], for which the inhibition in vivo at 25 mg/kg in data set [1] (setting [5]) worked out at 59.8%. Also, the “Gastroprotective effect: Lesion index” value in data set [1] (single oral dose 25 mg/kg) stood at 18.5 ± 11.8 mm. The results for the IC50 at 24 h in data set [2], in data set [3] and in data set [4] were 297 ± 14 µM, 894 ± 56 µM and greater than 1000 µM, respectively.

The record behind these values is paper PMC6259277, “Synthesis, Gastroprotective Effect and Cytotoxicity of New Amino Acid Diterpene Monoamides and Diamides” (Molecules, 2010).
